Like-named read-outs stand apart in the source and are kept apart here.
Key:
Type in all cases: biochemical
[1] = biological target: MMP-3 catalytic domain (MMP-3CD) (Homo sapiens, UniProt P08254); test: Inhibition of MMP-3 catalytic domain (thiopeptolide substrate hydrolysis, MES pH 6.0)
Description: (§1) The assays measure the amount by which a test compound reduces the hydrolysis of a thiopeptolide substrate catalyzed by a matrix metalloproteinase enzyme. Such assays are described in detail by Ye et al., in Biochemistry, 1992;31(45):11231-11235, which is incorporated herein by reference. One such assay is described below in Biological Method 1.
(§2) Thiopeptolide substrates show virtually no decomposition or hydrolysis at or below neutral pH in the absence of a matrix metalloproteinase enzyme. A typical thiopeptolide substrate commonly utilized for assays is Ac-Pro-Leu-Gly-thioester-Leu-Leu-Gly-OEt. A 100 μL assay mixture will contain 50 mM of N-2-hydroxyethylpiperazine-N′-2-ethanesulfonic acid buffer (“HEPES,” pH 7.0), 10 mM CaCl2, 100 μM thiopeptolide substrate, and 1 mM 5,5′-dithio-bis-(2-nitro-benzoic acid) (DTNB). The thiopeptolide substrate concentration may be varied, for example from 10 to 800 μM to obtain Km and Kcat values. The change in absorbance at 405 nm is monitored on a Thermo Max microplate reader (molecular Devices, Menlo Park, Calif.) at room temperature (22° C.). The calculation of the amount of hydrolysis of the thiopeptolide substrate is based on E412=13600 M^−1 cm^−1 for the DTNB-derived product 3-carboxy-4-nitrothiophenoxide. Assays are carried out with and without matrix metalloproteinase inhibitor compounds, and the amount of hydrolysis is compared for a determination of inhibitory activity of the test compounds.
(§3) Test compounds were evaluated at various concentrations in order to determine their respective IC50 values, the micromolar concentration of compound required to cause a 50% inhibition of catalytic activity of the respective enzyme.
It should be appreciated that the assay buffer used with MMP-3CD was 50 mM N-morpholinoethane sulfonate (“MES”) at pH 6.0 rather than the HEPES buffer at pH 7.0 described above.

[2] = biological target: MMP-14 catalytic domain (MMP-14CD) (Homo sapiens, UniProt P50281); test: Inhibition of MMP-14 catalytic domain (thiopeptolide substrate hydrolysis)
Description: as §1, §2, §3
(§4) The test described above for the inhibition of MMP-13 may also be adapted and used to determine the ability of the compounds of Formula I to inhibit the matrix metalloproteases MMP-1, MMP-2, MMP-3, MMP-7, MMP-9, MMP-12 and MMP-14.

[3] = biological target: T1, MMP-13 catalytic domain (MMP-13CD) (Homo sapiens, UniProt P45452); test: Inhibition of MMP-13 catalytic domain (thiopeptolide substrate hydrolysis)
T1 construct: use the catalytic domain of the MMP-13 enzyme, namely matrix metalloproteinase-13 catalytic domain (“MMP-13CD”), rather than the corresponding full-length enzyme
Description: as §1
Some of the particular methods described below use the catalytic domain of the MMP-13 enzyme, namely matrix metalloproteinase-13 catalytic domain (“MMP-13CD”), rather than the corresponding full-length enzyme, MMP-13. It has been shown previously by Ye Qi-Zhuang, Hupe D., and Johnson L. (Current Medicinal Chemistry, 1996;3:407-418) that inhibitor activity against a catalytic domain of an MMP is predictive of the inhibitor activity against the respective full-length MMP enzyme.
as §2, §3

[4] = biological target: T2, MMP-12 catalytic domain (MMP-12CD) (Homo sapiens, UniProt P39900); test: Inhibition of MMP-12 catalytic domain (thiopeptolide substrate hydrolysis)
T2 construct: MMP-3 catalytic domain, MMP-12 catalytic domain, MMP-14 catalytic domain, and MMP-17 catalytic domain
T2 sequence (P39900 106-263 limits assumed, species assumed): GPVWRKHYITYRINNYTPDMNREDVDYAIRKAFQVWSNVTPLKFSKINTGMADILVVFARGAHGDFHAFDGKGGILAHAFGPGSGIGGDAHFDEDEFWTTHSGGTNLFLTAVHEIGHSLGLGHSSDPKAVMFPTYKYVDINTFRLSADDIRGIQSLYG
Description: as §1, §2, §3, §4

[5] = biological target: T3, MMP-17 catalytic domain (MMP-17CD) (Homo sapiens, UniProt Q9ULZ9); test: Inhibition of MMP-17 catalytic domain (thiopeptolide substrate hydrolysis)
T3 construct: MMP-3 catalytic domain, MMP-12 catalytic domain, MMP-14 catalytic domain, and MMP-17 catalytic domain
T3 sequence (Q9ULZ9 126-295 limits assumed): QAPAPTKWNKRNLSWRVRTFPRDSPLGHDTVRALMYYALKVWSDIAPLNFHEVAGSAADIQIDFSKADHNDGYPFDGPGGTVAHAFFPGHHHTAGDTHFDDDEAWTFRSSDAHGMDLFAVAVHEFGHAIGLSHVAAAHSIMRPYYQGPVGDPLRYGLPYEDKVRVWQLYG
Description: as §1, §2, §3

[6] = Biological Table 1, read-out: MMP-13CD IC50
[7] = Biological Table 2, compounds of Example 66, read-out: MMP-13CD IC50
[8] = read-out: IC50 with MMP-13 catalytic domain

MMP-3 catalytic domain (MMP-3CD), sequence (P08254 100-272 limits assumed, species assumed): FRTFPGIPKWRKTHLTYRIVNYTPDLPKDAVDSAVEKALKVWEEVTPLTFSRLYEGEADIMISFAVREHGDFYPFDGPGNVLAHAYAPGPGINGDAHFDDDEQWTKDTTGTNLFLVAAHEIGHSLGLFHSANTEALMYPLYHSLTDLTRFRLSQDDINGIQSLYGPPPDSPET

SMILES | IC50 [3, 6] [µM] | IC50 [3, 7] [µM] | further results
COc1cccc(CNC(=O)c2ccc3ccn(Cc4ccc(C#N)cc4)c(=O)c3c2)c1 [Example 37, 2-(4-cyanobenzyl)-1-oxo-1,2-dihydro-isoquinoline-7-carboxylic Acid 3-methoxybenzylamide] | 0.095 | – | IC50 [1]: 13 µM; IC50 [2]: > 30 µM; IC50 [4]: 13 µM
CSc1ccc(CNC(=O)c2ccc3ccn(CCOc4ccccc4)c(=O)c3c2)cc1 [Example 48, 1-oxo-2-(2-phenoxyethyl)-1,2-dihydroisoquinoline-7-carboxylic Acid 4-methylsulfanylbenzamide] | 4.2 | – | –
COc1cc(CNC(=O)c2ccc3ccn(CCOc4ccccc4)c(=O)c3c2)ccn1 [Example 43, 1-oxo-2-(2-phenoxyethyl)-1,2-dihydroisoquinoline-7-carboxylic Acid (2-methoxypyridin-4-ylmethyl)amide] | 3.8 | – | –
O=C(O)c1ccc(Cn2ccc3ccc(C#CCn4ccnn4)cc3c2=O)cc1 [4-[1-oxo-7-(3-[1,2,3]triazol-1-ylprop-1-ynyl)-1H-isoquinolin-2-ylmethyl]benzoic acid] | – | – | IC50 ([3]; hMMP-13CD, text b731, read-out: IC50 with hMMP-13CD): > 50 µM
O=C(NCc1ccc(-c2csnn2)cc1)c1ccc2ccn(Cc3ccc(-c4nn[nH]n4)cc3)c(=O)c2c1 [Example 64, 1-oxo-2-[4-(2H-tetrazol-5-yl)benzyl]-1,2-dihydroisoquinoline-7-carboxylic Acid 4-[1,2,3]thiadiazol-4-yl-benzylamide] | 0.068 | – | IC50 [1]: 16 µM; IC50 [5]: > 10 µM
O=C(NCc1ccncc1)c1ccc2ccn(CCOc3ccccc3)c(=O)c2c1 [Example 41, 1-oxo-2-(2-phenoxyethyl)-1,2-dihydroisoquinoline-7-carboxylic Acid (pyridin-4-ylmethyl)amide] | 26 | – | –
CS(=O)(=O)c1ccc(Cn2ccc3ccc(C(=O)NCc4ccncc4)cc3c2=O)cc1 [Example 49, 2-(4-methanesulfonylbenzyl)-1-oxo-1,2-dihydroisoquinoline-7-carboxylic Acid (pyridin-4-ylmethyl)amide] | 3.1 | – | –
O=C(NCc1cncnc1)c1ccc2ccn(Cc3ccc(F)c(F)c3)c(=O)c2c1 [Example 26, 2-(3,4-difluorobenzyl)-1-oxo-1,2-dihydroisoquinoline-7-carboxylic Acid (pyrimidin-5-ylmethyl)-amide] | 12 | – | –
O=C(NCc1cccnc1)c1ccc2ccn(CCOc3ccccc3)c(=O)c2c1 [Example 42, 1-oxo-2-(2-phenoxyethyl)-1,2-dihydroisoquinoline-7-carboxylic Acid (pyridin-3-ylmethyl)amide] | 55 | – | –
COc1ccc(CNC(=O)c2ccc3ccn(CCOc4ccccc4)c(=O)c3c2)cc1 [Example 44, 1-oxo-2-(2-phenoxyethyl)-1,2-dihydroisoquinoline-7-carboxylic Acid 4-methoxybenzylamide] | 7.5 | – | –
Cc1ccc(CNC(=O)c2ccc3ccn(Cc4ccc(S(C)(=O)=O)cc4)c(=O)c3c2)cc1 [Example 55, 2-(4-methane-sulfonylbenzyl)-1-oxo-1,2-dihydro-isoquinoline-7-carboxylic Acid 4-methylbenzyl-amide] | > 30 | – | –
N#Cc1ccc(Cn2ccc3ccc(C(=O)NCc4cncnc4)cc3c2=O)cc1 [Example 38, 2-(4-cyanobenzyl)-1-oxo-1,2-dihydro-isoquinoline-7-carboxylic Acid (pyrimidin-5-ylmethyl)amide] | 17 | – | –
COc1ccc(CNC(=O)c2ccc3ccn(Cc4ccc(C#N)cc4)c(=O)c3c2)cc1 [Example 36, 2-(4-cyanobenzyl)-1-oxo-1,2-dihydro-isoquinoline-7-carboxylic Acid 4-methoxybenzylamide] | 0.24 | – | IC50 [1]: 19 µM; IC50 [2]: > 30 µM; IC50 [4]: 24 µM
O=c1c2cc(C#CCc3ccccc3)ccc2ccn1Cc1cccc(Cl)c1 [Example 10, 2-(3-Chlorobenzyl)-7-(3-phenylprop-1-ynyl)-2H-isoquinolin-1-one] | – | – | IC50 [3, 8]: 0.052 µM
COc1cc(CNC(=O)c2ccc3ccn(Cc4ccc(C#N)cc4)c(=O)c3c2)ccn1 [Example 35, 2-(4-cyanobenzyl)-1-oxo-1,2-dihydro-isoquinoline-7-carboxylic Acid (2-methoxypyridin-4-ylmethyl)amide] | 0.4 | – | IC50 [1]: 7 µM; IC50 [2]: 81 µM; IC50 [4]: > 10 µM
O=C(O)c1ccc(Cn2ccc3ccc(C#CCc4ccccc4)cc3c2=O)cc1 [Example 1, 4-[1-Oxo-7-(3-phenyl-prop-1-ynyl)-1H-isoquinolin-2-ylmethyl]benzoic Acid] | – | – | IC50 [3, 8]: 0.0018 µM

Now from value to compound, other results behind:

IC50 [3, 6] [µM] | IC50 [3, 7] [µM] | SMILES | further results
– | 20 | CC(C)(CO)Cn1ccc2ccc(C#CCc3ccccc3)cc2c1=O [Example 66y, 2-(3-Hydroxy-2,2-dimethyl-propyl)-7-(3-phenyl-prop-1-ynyl)-2H-isoquinolin-1-one] | –
– | 8.7 | CCOC(=O)CCCCCn1ccc2ccc(C#CCc3ccccc3)cc2c1=O [Example 66v, 6-[1-Oxo-7-(3-phenyl-prop-1-ynyl)-1H-isoquinolin-2-yl]-hexanoic acid ethyl ester] | –
– | 24 | O=c1c2cc(C#CCc3ccccc3)ccc2ccn1CC1OCCO1 [Example 66n, 2-1,3-Dioxolan-2-ylmethyl-7-(3-phenyl-prop-1-ynyl)-2H-isoquinolin-1-one] | –
– | > 30 | CC1OCCCC1n1ccc2ccc(C#CCc3ccccc3)cc2c1=O (stereo not shown) [Example 66g, 2-(2-Methyl-tetrahydro-pyran-3-yl)-7-(3-phenyl-prop-1-ynyl)-2H-isoquinolin-1-one] | –
– | > 100 | COC(=O)CCn1ccc2ccc(C#CCc3ccccc3)cc2c1=O [Example 66k, 3-[1-Oxo-7-(3-phenyl-prop-1-ynyl)-1H-isoquinolin-2-yl]-propionic acid methyl ester] | –
– | 7.1 | O=c1c2cc(C#CCc3ccccc3)ccc2ccn1CCCCCCO [Example 66ac, 2-(6-Hydroxy-hexyl)-7-(3-phenyl-prop-1-ynyl)-2H-isoquinolin-1-one] | –
– | 34 | COC(Cn1ccc2ccc(C#CCc3ccccc3)cc2c1=O)OC [Example 66h, 2-(2,2-Dimethoxy-ethyl)-7-(3-phenyl-prop-1-ynyl)-2H-isoquinolin-1-one] | –
– | 13 | O=c1c2cc(C#CCc3ccccc3)ccc2ccn1CC1CCCO1 (stereo not shown) [Example 66i, 7-(3-Phenyl-prop-1-ynyl)-2-(tetrahydro-furan-2-ylmethyl)-2H-isoquinolin-1-one] | –
– | > 100 | CCOC(=O)CCn1ccc2ccc(C#CCc3ccccc3)cc2c1=O [Example 66t, 3-[1-Oxo-7-(3-phenyl-prop-1-ynyl)-1H-isoquinolin-2-yl]-propionic acid ethyl ester] | –
– | 95 | CS(=O)(=O)c1ccc(Cn2ccc3ccc(C#CCc4ccccc4)cc3c2=O)cc1 [Example 66o, 2-(4-Methanesulfonyl-benzyl)-7-(3-phenyl-prop-1-ynyl)-2H-isoquinolin-1-one] | –
– | 24 | O=c1c2cc(C#CCc3ccccc3)ccc2ccn1CCC1OCCO1 [Example 66m, 2-(2-1,3-Dioxolan-2-yl-ethyl)-7-(3-phenyl-prop-1-ynyl)-2H-isoquinolin-1-one] | –
– | 33 | CCOC(Cn1ccc2ccc(C#CCc3ccccc3)cc2c1=O)OCC [Example 66r, 2-(2,2-Diethoxy-ethyl)-7-(3-phenyl-prop-1-ynyl)-2H-isoquinolin-1-one] | –
– | > 100 | O=c1c2cc(C#CCc3ccccc3)ccc2ccn1CC[S+]([O-])c1ccccc1 (stereo not shown) [Example 66z, 2-(2-Benzenesulfinyl-ethyl)-7-(3-phenyl-prop-1-ynyl)-2H-isoquinolin-1-one] | –

— patent US20040044000A1, “Isoquinoline derivatives as matrix metalloproteinase inhibitors” (priority 2002, published 2004)
